Results as given in article PMC8778022, “Synthesis and Biological Activity of 3-(Heteroaryl)quinolin-2(1H)-ones Bis-Heterocycles as Potential Inhibitors of the Protein Folding Machinery Hsp90” (Molecules, 2022).

Columns and labels:
MDA-MB-231 cells = assay: MTS cell viability assay, MDA-MB-231 cells, 72 h; assay type: cell-based, human; settings: Homo sapiens, MDA-MB-231, 72 h, 25 µM, % of viable cells compared to untreated cells 100%
Method: (§1) Upon completion of their syntheses, the in vitro activity of quinolone derivatives 3a–f, 4a–h, and 5a,b was evaluated by their growth-inhibitory potency in three cancer cell lines. At first, the viability of the synthesized compounds was examined with the MDA-MB-231 […] breast cancer cell line at concentrations of 10 µM, 15 µM, and 25 µM. Prostate cancer PC-3 cells and human fetal lung fibroblast MRC-5 cell lines were also subjected to this series of compounds at a unique concentration of 15 µM.
(§2) MDA-MB-231 cells were grown in L15 supplemented with 15% serum, 2 mM glutamine, and 22 mM sodium bicarbonate in the presence of Penicillin/Streptomycin antibiotic mixture. PC-3 cells were cultured in RPMI 1640 supplemented with 10% serum and 2 mM glutamine in the presence of Penicillin/Streptomycin antibiotic mixture. MRC-5 cells were cultured in EMEM supplemented with 10% serum and 2 mM glutamine in the presence of Penicillin/Streptomycin antibiotic mixture (Reagents were purchased from Sigma Aldrich, Saint-Quentin-Fallavier, France).
(§3) Cells were treated for 72 h with 10, 15, and 25 µM of the selected substances. Control cells were treated with the equivalent in DMSO.
(§4) Cell survival was assessed using the CellTiter Aqueous One Proliferation assay (Promega, Charbonnières-les-Bains, France) whereby 2500 or 5000 cells per well were seeded in 96-well plates in 100 µL. At the end of the treatment, 20 µL of reagent was added, and absorbance readings were taken at 492 nm on a 96-well plate reader after 3 h of contact (on average).

[1] = MTS cell viability assay, MRC-5 cells, 72 h; assay type: cell-based, human; settings: human, MRC-5 fetal lung fibroblast cells, % of viable cells compared to untreated cells 100%
Method: as §1, §2, §3, §4

colon carcinoma cells = system: colon carcinoma cells; set-up: method as in PMID 34952432; settings: cited from earlier work
MCF7 = settings: Figure 1; cited from earlier work
PC3 = settings: earlier studies on mode of action; cited from earlier work
PC-3 cells = assay: MTS cell viability / growth inhibition assay, PC-3 cells, 72 h; assay type: cell-based, human; settings: Homo sapiens, PC-3; concentration needed to reduce cell growth by 50%, 72 h treatment; estimated; read-out: GI50 anti-proliferative effect PC-3
Method: as §1
Then, the growth inhibitory activities against PC-3 prostate cancer cell line were measured for the selected 3-heteroaryl-quinolin-2(1H)-one derivatives 3a–e.
as §2, §3, §4

[2] = system: MCF-7 breast cancer cell line; settings: earlier studies on mode of action; cited from earlier work
[3] = system: Hsp90 client proteins (HER2, Raf-1 and cdk-4); settings: earlier studies on mode of action; cited from earlier work

`Cn1c(=O)c(-c2nc3c(-c4ccc(Cl)cc4)ncnc3n2Cc2ccccc2)cc2ccccc21` [4g, 3-[9-benzyl-6-(4-chlorophenyl)-9H-purin-8-yl]-1-methylquinolin-2(1H)-one] gave a melting point of 202 to 203 °C, a viability at 25 µM (MDA-MB-231 cells) of about 30% and a viability at 72 h, 15 µM [1] of 71 to 79%.

In the case of `Cn1c(=O)c(NC(=O)c2ccc(OCCCCCCCCCC[P+](c3ccccc3)(c3ccccc3)c3ccccc3)cc2)cc2cc(Br)ccc21.[Br-]` [6BrCaQ-C10-TPP], the mitochondrial membrane disruption (colon carcinoma cells) is given as “significant mitochondrial membrane disruption”.

In the case of `COc1ccc(C(=O)Nc2cc3cc(Br)ccc3n(C)c2=O)cc1` [6BrCaQ], the IC50 (MCF7) is given as 7 µM, the apoptosis level (PC3) is given as “high apoptosis level” and the GI50 (PC-3 cells) is given as 10 µM. The apoptosis level [2] was “high apoptosis level” and the “Hsp90 client proteins (HER2, Raf-1 and cdk-4)” value [3] was “downregulation”.
